Assay results as given in patent US20020137929A1, “1 - (3-heterocyclylphenyl) isothiourea, -isourea, -guanidine and -amidine herbicidal agents” (Intellectual Property Department, BASF Aktiengesellschaft, priority 1998, published 2002).

Columns and labels:
ZEAMX (Corn, Field) = test: Preemergence herbicidal evaluation; type: in vivo, Zea mays; details: rated 4-5 weeks after treatment
Summary of the method: (§1)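 Preemergence soil application of compound, sprayed in aqueous acetone at rates equivalent to about 0.0156 to 0.500 kg per hectare onto freshly sown cups. Plant response was judged by eye on a 0-9 scale four to five weeks later.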

SETVI (Foxtail, Green) = test: Postemergence herbicidal evaluation; type: in vivo, Setaria viridis
Summary of the method: (§2)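 Each compound, dispersed in an acetone/water mix (50/50) carrying 0.5% TWEEN 20, is nozzle-sprayed at 40 psi on approximately two-week-old seedlings at about 0.0156–0.500 kg/ha. Plants are assessed 4–5 weeks afterward on a 0–9 scale relative to control; duplicate tests are averaged.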

ABUTH (Velvetleaf) = test: Postemergence herbicidal evaluation; type: in vivo, Abutilon theophrasti
Summary of the method: as §2

[1] = tested on: TRZAWR (Wheat, Winter, cv Riband); test: Preemergence herbicidal evaluation; type: in vivo, Triticum aestivum; details: rated 4-5 weeks after treatment
Summary of the method: as §1

MOOVA (Monochoria) = test: Preemergence weed control under flooded paddy conditions; type: in vivo, Monochoria vaginalis; details: rated 3-4 weeks after treatment
Summary of the method: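 First, seeds or propagules go into the top 0.5 cm of silt loam; next, water is held 1.5 to 3 cm over the soil; then compound (50/50 acetone/water) is pipetted into it at about 0.0313 to 0.500 kg/ha; finally plants are rated visually 0-9 after three to four weeks.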

GALAP (Galium) = test: Postemergence herbicidal evaluation; type: in vivo, Galium aparine
Summary of the method: as §2

CYPIR (Rice Flatsedge) = test: Preemergence weed control under flooded paddy conditions; type: in vivo, Cyperus iria; details: rated 3-4 weeks after treatment
Summary of the method: (§3)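 Silt loam, seeds in top 0.5 cm; flood held 1.5-3 cm; test cpd as acetone/water 50/50 into flood water, ~0.0313-0.500 kg/ha a.i.; greenhouse 3-4 wk; visual 0-9 score vs control.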

[2] = tested on: ECHORC (Watergrass (Calif.)); test: as above; type: in vivo, Echinochloa oryzoides; details: rated 3-4 weeks after treatment
Summary of the method: as §3

ECHCG (Barnyardgrass) = test: Postemergence herbicidal evaluation; type: in vivo, Echinochloa crus-galli
Summary of the method: as §2

ORYSAT (Rice, Tebonnet) = test: Postemergence herbicidal evaluation; type: in vivo, Oryza sativa, (L.) Tebonnet
Summary of the method: as §2

[3] = tested on: IPOHE (Morningglory, Ivyleaf); test: Preemergence herbicidal evaluation; type: in vivo, Ipomoea hederacea; details: rated 4-5 weeks after treatment
Summary of the method: as §1

[4] = postemergence, rate 0.0625 kg/ha

CCCN1C(=O)CSC1=Nc1cc(-n2c(=O)cc(C(F)(F)F)n(C)c2=O)c(F)cc1Cl [Compound 171, 3-{4-Chloro-2-fluoro-5-[(4-oxo-3-propyl-2-thiazolidinylidene)amino]phenyl}-1-methyl-6-(trifluoromethyl)-2,4 (1H, 3H)-pyrimidinedione]
4.0: Postemergence herbicidal rating ECHCG (ECHCG (Barnyardgrass); Rate 0.0156 kg/ha) | Postemergence herbicidal rating ECHCG (ECHCG (Barnyardgrass); Rate 0.0313 kg/ha) | Postemergence herbicidal rating ORYSAT (ORYSAT (Rice, Tebonnet); Rate 0.0313 kg/ha)
9.0: Preemergence herbicidal rating ZEAMX (ZEAMX (Corn, Field); 0.2500 kg/ha) | herbicidal rating SETVI (SETVI (Foxtail, Green); [4]) | Postemergence herbicidal rating ABUTH (ABUTH (Velvetleaf); Rate 0.0156 kg/ha) | Postemergence herbicidal rating ABUTH (ABUTH (Velvetleaf); Rate 0.0313 kg/ha) | herbicidal rating ABUTH (ABUTH (Velvetleaf); [4]) | herbicidal effect rating, MOOVA (MOOVA (Monochoria); 0.0313 kg/ha) | herbicidal effect rating, MOOVA (MOOVA (Monochoria); 0.0625 kg/ha) | herbicidal effect rating, MOOVA (MOOVA (Monochoria); 0.1250 kg/ha) | herbicidal effect rating, MOOVA (MOOVA (Monochoria); 0.2500 kg/ha) | herbicidal effect rating, CYPIR (CYPIR (Rice Flatsedge); 0.0625 kg/ha) | herbicidal effect rating, CYPIR (CYPIR (Rice Flatsedge); 0.1250 kg/ha) | herbicidal effect rating, CYPIR (CYPIR (Rice Flatsedge); 0.2500 kg/ha) | herbicidal effect rating, ECHORC ([2]; 0.0625 kg/ha) | herbicidal effect rating, ECHORC ([2]; 0.1250 kg/ha) | herbicidal effect rating, ECHORC ([2]; 0.2500 kg/ha) | Preemergence herbicidal rating IPOHE ([3]; 0.0625 kg/ha) | Preemergence herbicidal rating IPOHE ([3]; 0.1250 kg/ha) | Preemergence herbicidal rating IPOHE ([3]; 0.2500 kg/ha)
7.0: Postemergence herbicidal rating SETVI (SETVI (Foxtail, Green); Rate 0.0156 kg/ha) | Postemergence herbicidal rating SETVI (SETVI (Foxtail, Green); Rate 0.0313 kg/ha) | herbicidal rating GALAP (GALAP (Galium); [4])
3.5: Postemergence herbicidal rating ORYSAT (ORYSAT (Rice, Tebonnet); Rate 0.0156 kg/ha)
5.0: herbicidal rating ORYSAT (ORYSAT (Rice, Tebonnet); [4])
6.0: Preemergence herbicidal rating ZEAMX (ZEAMX (Corn, Field); 0.0313 kg/ha) | Preemergence herbicidal rating TRZAWR ([1]; 0.0625 kg/ha) | Preemergence herbicidal rating TRZAWR ([1]; 0.1250 kg/ha) | Postemergence herbicidal rating GALAP (GALAP (Galium); Rate 0.0313 kg/ha)
2.0: Preemergence herbicidal rating ZEAMX (ZEAMX (Corn, Field); 0.0156 kg/ha) | Preemergence herbicidal rating TRZAWR ([1]; 0.0156 kg/ha) | Preemergence herbicidal rating IPOHE ([3]; 0.0156 kg/ha)
3.0: Preemergence herbicidal rating TRZAWR ([1]; 0.0313 kg/ha) | Postemergence herbicidal rating GALAP (GALAP (Galium); Rate 0.0156 kg/ha) | herbicidal effect rating, CYPIR (CYPIR (Rice Flatsedge); 0.0313 kg/ha) | herbicidal rating ECHCG (ECHCG (Barnyardgrass); [4]) | Preemergence herbicidal rating IPOHE ([3]; 0.0313 kg/ha)
8.0: Preemergence herbicidal rating ZEAMX (ZEAMX (Corn, Field); 0.0625 kg/ha) | Preemergence herbicidal rating ZEAMX (ZEAMX (Corn, Field); 0.1250 kg/ha) | Preemergence herbicidal rating TRZAWR ([1]; 0.2500 kg/ha) | herbicidal effect rating, ECHORC ([2]; 0.0313 kg/ha)
